The target in this assay is human 11βHSD1 enzyme (Homo sapiens (Human), UniProt P28845). Kind of assay: biochemical. To be noted: read-out: % inhibition of human 11-βHSD.

SMILES strings stand for the structures.

The term inhibition denotes the change of the read-out against control, counted positive when it falls.

Chain of human 11βHSD1 enzyme (P28845 whole entry): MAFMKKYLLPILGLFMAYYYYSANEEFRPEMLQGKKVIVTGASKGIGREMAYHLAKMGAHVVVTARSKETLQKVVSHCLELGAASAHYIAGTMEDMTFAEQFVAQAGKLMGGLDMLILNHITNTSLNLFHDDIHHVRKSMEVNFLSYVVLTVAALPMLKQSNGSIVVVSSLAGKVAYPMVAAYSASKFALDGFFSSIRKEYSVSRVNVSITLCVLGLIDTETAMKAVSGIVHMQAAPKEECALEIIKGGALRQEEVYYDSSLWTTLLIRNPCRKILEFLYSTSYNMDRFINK

With `CCCCc1nc(N2CC3C(C2)C3C(=O)O)ccc1C(=O)NC1C2CC3CC(C2)CC1C3` (stereo not drawn) [Example 163, 3-[5-(2-adamantylcarbamoyl)-6-butyl-pyridin-2-yl]-3-azabicyclo[3.1.0]hexane-6-carboxylic acid], the inhibition at 30 µM was found to be 93%. With `CCCSc1nc(N2CCC[C@H](CC(=O)O)C2)ccc1C(=O)N(C)C1CCCCC1` [Example 168, 2-[(3R)-1-[5-(Cyclohexyl-methyl-carbamoyl)-6-propylsulfanyl-pyridin-2-yl]-3-piperidyl]acetic acid], the inhibition at 30 µM was 108%. For the molecule `CCCSc1nc(N2CCC[C@@H](CC(=O)O)C2)ccc1C(=O)N(C)[C@H]1C2CC3CC1C[C@](OC)(C3)C2` [Example 170, [(3S)-1-[5-[((2r,5s)-5-Methoxyadamantan-2-yl)(methyl)carbamoyl]-6-(propylthio)pyridin-2-yl]piperidin-3-yl]acetic acid], the inhibition at 30 µM is 92%. In the case of `CCCSc1nc(N2CCC[C@@H](CC(=O)O)C2)ccc1C(=O)N(C)[C@H]1C2CC3CC1C[C@](O)(C3)C2` [Example 171, [(3S)-1-{5-[((2r,5s)-5-Hydroxyadamantan-2-yl)(methyl)carbamoyl]-6-(propylthio)pyridin-2-yl}piperidin-3-yl]acetic acid], the inhibition at 30 µM was found to be 97%. `CCCSc1nc(N2CCC[C@@H](CC(=O)O)C2)ccc1C(=O)NC12CC3CC(CC(C3)C1)C2` [Example 172, {(3S)-1-[5-(Adamantan-1-ylcarbamoyl)-6-(Propylthio)pyridin-2-yl]piperidin-3-yl}acetic acid]: the inhibition at 30 µM was 88%. Consider `CCCSc1nc(N2CCC[C@@H](CC(=O)O)C2)ccc1C(=O)NC1CCOCC1` [Example 173], for which the inhibition at 30 µM came out at 92%.

For the molecule `CCCSc1nc(N2CCC[C@@H](CC(=O)O)C2)ccc1C(=O)N(C)C1CCOCC1` [Example 174, [(3S)-1-{5-[Methyl(tetrahydro-2H-pyran-4-yl)carbamoyl]-6-(propylthio)pyridin-2-yl}piperidin-3-yl]acetic acid], the inhibition at 30 µM is 92%. As to `O=C(O)C[C@@H]1CCN(c2ccc(C(=O)N[C@H]3C4CC5CC3C[C@](OC(F)F)(C5)C4)c(SC3CCCCC3)n2)C1` [Example 175, 2-[(3S)-1-[6-Cyclohexylsulfanyl-5-[[(2r,5s)-5-(difluoromethoxy)-2-adamantyl]carbamoyl]pyridin-2-yl]pyrrolidin-3-yl]acetic acid], the inhibition at 30 µM was 91%. The figure for `O=C(O)C[C@@H]1CCCN(c2ccc(C(=O)N[C@H]3C4CC5CC3C[C@](OC(F)F)(C5)C4)c(SC3CCCCC3)n2)C1` [Example 176, 2-[(3S)-1-[6-Cyclohexylsulfanyl-5-[[(2r,5s)-5-(difluoromethoxy)-2-adamantyl]carbamoyl]pyridin-2-yl]-3-piperidyl]acetic acid] is 92%; for `O=C(O)C[C@@H]1CCCN(c2ccc(C(=O)N[C@H]3C4CC5CC3C[C@](OC(F)F)(C5)C4)c(SC3CCCC3)n2)C1` [Example 178, 2-[(3S)-1-[6-Cyclopentylsulfanyl-5-[[(2r,5s)-5-(difluoromethoxy)-2-adamantyl]carbamoyl]pyridin-2-yl]-3-piperidyl]acetic acid] it is 93%; for `CCCSc1nc(N2CCC[C@@H](CC(=O)O)C2)ccc1C(=O)N[C@H]1C2CC3CC1C[C@](OC(F)F)(C3)C2` [Example 179, 2-[(3S)-1-[5-[[(2r,5s)-5-(Difluoromethoxy)-2-adamantyl]carbamoyl]-6-propylsulfanyl-pyridin-2-yl]-3-piperidyl]acetic acid] it is 87%. To `CCCSc1nc(N2CC[C@@H](CC(=O)O)C2)ccc1C(=O)N[C@H]1C2CC3CC1C[C@](OC(F)F)(C3)C2` [Example 180, 2-[(3S)-1-[5-[[(2r,5s)-5-(Difluoromethoxy)-2-adamantyl]carbamoyl]-6-propylsulfanyl-pyridin-2-yl]pyrrolidin-3-yl]acetic acid] belongs 95%.

For the origin of these results see US8673938B2, “Chemical compounds” (priority 2006, dated 2014).
